Results reported in patent publication US20260083692A1 (Strongbridge Dublin Limited, priority 2018, published 2026).
Like-named read-outs stand apart in the source and are kept apart here. Values belong to the molecule of their own block, whether it stands above or below them.

Experiments:
human OAT1 [1] = target: T1, human OAT1 (Homo sapiens, UniProt Q4U2R8); conditions: for Uptake (Average ± SD), OAT1: OAT1-expressing HEK293 cells; for Uptake (Average ± SD), Control: control HEK293 cells (vector only); for % control: relative to solvent control
T1 sequence (Q4U2R8 1-563): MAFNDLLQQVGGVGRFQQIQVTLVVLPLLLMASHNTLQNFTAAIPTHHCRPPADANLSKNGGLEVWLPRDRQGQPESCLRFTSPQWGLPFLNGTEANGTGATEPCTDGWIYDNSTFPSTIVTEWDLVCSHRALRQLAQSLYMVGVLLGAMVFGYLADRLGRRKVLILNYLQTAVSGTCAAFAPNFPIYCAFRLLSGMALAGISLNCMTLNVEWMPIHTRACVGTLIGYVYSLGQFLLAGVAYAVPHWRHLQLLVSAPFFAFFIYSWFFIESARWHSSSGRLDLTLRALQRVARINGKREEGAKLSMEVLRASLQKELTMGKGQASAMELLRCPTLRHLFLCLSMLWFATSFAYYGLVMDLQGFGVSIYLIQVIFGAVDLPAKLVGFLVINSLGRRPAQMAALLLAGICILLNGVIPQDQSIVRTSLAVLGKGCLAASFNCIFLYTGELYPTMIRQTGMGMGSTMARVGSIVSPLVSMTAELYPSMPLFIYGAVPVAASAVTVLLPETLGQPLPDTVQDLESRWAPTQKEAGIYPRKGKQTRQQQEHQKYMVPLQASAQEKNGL

human OAT1 [2] = target: T1, human OAT1; test: cell-based

Structure (SMILES): NS(=O)(=O)c1cc(Cl)c(Cl)c(S(N)(=O)=O)c1 [Dichlorphenamide, 4,5-dichloro-1,3-benzenedisulfonamide]
- Uptake (Average ± SD), OAT1 (human OAT1 [1]; inhibitor 1 μM): 6.99 pmol/mg protein
- Uptake (Average ± SD), OAT1 (human OAT1 [1]; inhibitor 3 μM): 5.99 ± 1.16 pmol/mg protein
- Uptake (Average ± SD), OAT1 (human OAT1 [1]; inhibitor 10 μM): 3.70 ± 0.44 pmol/mg protein
- Uptake (Average ± SD), OAT1 (human OAT1 [1]; inhibitor 30 μM): 3.25 ± 0.39 pmol/mg protein
- Uptake (Average ± SD), OAT1 (human OAT1 [1]; inhibitor 100 μM): 1.79 ± 0.25 pmol/mg protein
- Uptake (Average ± SD), OAT1 (human OAT1 [1]; inhibitor 300 μM): 1.47 ± 0.12 pmol/mg protein
- Uptake (Average ± SD), OAT1 (human OAT1 [1]; inhibitor 1000 μM): 0.669 ± 0.099 pmol/mg protein
- Uptake (Average ± SD), Control (human OAT1 [1]; inhibitor 1 μM): 0.0857 pmol/mg protein
- Uptake (Average ± SD), Control (human OAT1 [1]; inhibitor 3 μM): 0.107 ± 0.040 pmol/mg protein
- Uptake (Average ± SD), Control (human OAT1 [1]; inhibitor 10 μM): 0.0571 ± 0.0257 pmol/mg protein
- Uptake (Average ± SD), Control (human OAT1 [1]; inhibitor 30 μM): 0.612 ± 0.907 pmol/mg protein
- Uptake (Average ± SD), Control (human OAT1 [1]; inhibitor 100 μM): 0.150 ± 0.026 pmol/mg protein
- Uptake (Average ± SD), Control (human OAT1 [1]; inhibitor 300 μM): 0.0452 ± 0.0082 pmol/mg protein
- Uptake (Average ± SD), Control (human OAT1 [1]; inhibitor 1000 μM): 0.119 ± 0.022 pmol/mg protein
- IC50 parameters: Max (human OAT1 [1]; fit of OAT1 inhibition curve): Max: 115%
- IC50 parameters: Min (human OAT1 [1]; fit of OAT1 inhibition curve): Min: 0%
- Background corrected uptake rate (human OAT1 [1]; inhibitor 1 μM): 6.90 pmol/mg/min
- % control (human OAT1 [1]; inhibitor 1 μM): 112%
- Background corrected uptake rate (human OAT1 [1]; inhibitor 3 μM): 5.88 pmol/mg/min
- % control (human OAT1 [1]; inhibitor 3 μM): 95.6%
- Background corrected uptake rate (human OAT1 [1]; inhibitor 10 μM): 3.64 pmol/mg/min
- % control (human OAT1 [1]; inhibitor 10 μM): 59.2%
- Background corrected uptake rate (human OAT1 [1]; inhibitor 30 μM): 2.64 pmol/mg/min
- % control (human OAT1 [1]; inhibitor 30 μM): 42.9%
- Background corrected uptake rate (human OAT1 [1]; inhibitor 100 μM): 1.64 pmol/mg/min
- % control (human OAT1 [1]; inhibitor 100 μM): 26.7%
- Background corrected uptake rate (human OAT1 [1]; inhibitor 300 μM): 1.42 pmol/mg/min
- % control (human OAT1 [1]; inhibitor 300 μM): 23.1%
- Background corrected uptake rate (human OAT1 [1]; inhibitor 1000 μM): 0.550 pmol/mg/min
- % control (human OAT1 [1]; inhibitor 1000 μM): 8.9%
- IC50 (human OAT1 [2]): 17.7 µM

- Uptake (Average ± SD), OAT1 (human OAT1 [1]; inhibitor 300 μM): 0.425 ± 0.071 pmol/mg protein
- Uptake (Average ± SD), Control (human OAT1 [1]; inhibitor 300 μM): 0.231 ± 0.048 pmol/mg protein
- Background corrected uptake rate (human OAT1 [1]; inhibitor 300 μM): 0.194 pmol/mg/min
- % control (human OAT1 [1]; inhibitor 300 μM): 3.2%
Structure (SMILES): CO[C@@H]1[C@@H](OC(N)=O)[C@@H](O)[C@H](Oc2ccc3c(O)c(NC(=O)c4ccc(O)c(CC=C(C)C)c4)c(=O)oc3c2C)OC1(C)C [Novobiocin]
